Laboratory results from patent US5770363A, “Methods for diagnosing human male infertility” (priority 1995, dated 1998).
“And” between values parts separate entries of the source, which are not always exact repeats. Identical values can stand only once. “Also recorded” adds a separate entry of the source.

Key:
[1] = system: male reproductive system; conditions: in vivo; cited from earlier work
[2] = system: permeabilized human sperm; assay: DTT (XEIM) pretreatment of permeabilized human sperm before HSAA; type: cell-based; conditions: 50 mM DTT in XEIM, 45 minutes on ice
Protocol: On the day that the diagnostic method is to be performed, the samples are incubated for 30 minutes at 37° C.; each sample is then suspended in 10 ml of nuclear isolation medium (NIM, 200 mM sucrose, 2.4 mM MgCl2, 10 mM Tris-Hcl and 5 mM maleic acid, pH 7.4). A sperm count is taken and an aliquot (containing 20 million sperm) is pelleted in a centrifuge for 10 minutes at 400×g, then resuspended in 10 ml of NIM containing 0.05% lysolecithin and 1 μg/ml soybean trypsin inhibitor. The mixture is kept at room temperature for 5 minutes and the sperm repelleted as before, then washed, first in NIM with 3% BSA and then with NIM containing 0.4% BSA, as described by Lohka and Masui^1. Sperm will finally be suspended in Xenopus Extract Isolation Medium (XEIM, 10 mM Tris-HCL, pH 7.5, 1.5 mM MgCl2, 100 mM KCl and 50 mM DTT) at a concentration of 25,000 sperm/μl and kept on ice (between 0° C. and 4° C.) for 45 minutes before mixing with the frog egg extract. […] Such may be the result of reducing the protamines that in mammalian sperm are cross-linked by intermolecular disulfide bonds.^67 […]

[3] = system: rats; conditions: cited from earlier work
[4] = system: human sperm nuclei; assay: HSAA with frog egg extract ± aphidicolin (decondensation, recondensation, DNA synthesis of sperm nuclei); type: cell-based
Protocol: A HSAA will be set up using normal control sperm. After addition of the sperm to the egg extract containing BrdUrd (10 μM, 92) in place of ^3 H-TTP, aliquots will be taken at 15 minute time intervals throughout the 3 hours of the HSAA, with cytopreps made as previously described. However, instead of performing autoradiography, the BrdUrd staining protocol of Royere et al (1988)^131, which reference is specifically incorporated herein by reference for this purpose, will be used. The cytopreps will be fixed in cold methanol-acetic acid (3:1 v/v) followed by an RNase treatment.
The procedure requires that the DNA be partially denatured to expose incorporated BrdUrd to the specific antibody. The anti-BrdUrd antibodies that have been developed so far only bind BrdUrd in single-stranded DNA. The DNA-denaturing step will be done by placing the cytoprep slides in Copeland jars containing distilled water at 95° C. for 10 minutes. The slides will then be transferred into Copeland jars containing ice cold distilled water for 2 minutes and the sperm nuclei stained using anti-BrdUrd antibody (Boehringer Mannheim, mouse IgG) in PBS as the manufacturer's recommended dilution, followed by rhodamine-conjugated Goat anti-mouse IgG. The stained nuclei will be analyzed individually in our image analysis system.
Aphidicolin is described in Ikegami et al (1978)^101. This study will use sperm shown previously to respond normally in the HSAA.
Fluorescence intensities will be determined as previously described and plotted as fluorescence units above background fluorescence.
We will run a duplicate HSAA±aphidicolin (10 μg/ml), except minus tritiated thymidine triphosphate. After incubation, the sperm will be washed in PBS, fixed with 70% ethanol, centrifuged, and the fixative removed. The sperm will be resuspended in one volume of pretreatment solution (0.2M citric acid and 0.5% Tween 20) and incubated at RT for 20 minutes with gentle shaking. Subsequently, 9 volumes of the staining solution containing […] hydrogen phosphate and 5 μM 4', 6-diamidino-2-phenylindole (DAPI) will be added to raise the pH to ~7.0 and stain the DNA. The stained cells are stable for 24-48 hours, so can be shipped and/or transported by PI to Dr. Manimekalai's Laboratory where we will obtain flow cytometric histograms of the DNA content of the sperm nuclei. […] Estimated DNA synthesis for the sperm nuclei incubated in extract containing aphidicolin will be determined, and determine if it is in the 20-30% range (observed using the autoradiographic approach) when compared to the estimated DNA synthesis for the sperm nuclei incubated in extract without aphidicolin. […] Staining approaches that can be followed by quantitative flow cytometry include the use of Hoechst 33342 (64) and acridine orange (96).

[5] = system: human sperm nuclei; conditions: extract containing aphidicolin; cited from earlier work
[6] = system: DNA polymerase alpha; conditions: cited from earlier work
[7] = system: human sperm nuclei (chromatin decondensation); assay: Human sperm activation assay (HSAA): chromatin decondensation of chemically treated, permeabilized human sperm in Xenopus laevis egg extract; type: cell-based; conditions: for effect on sperm chromatin decondensation, in words (SEGS): SEGS-treated human sperm in vitro; for effect on decondensation, in words (hydroxylamine alone): 5 μM hydroxylamine; for reversal of SEGS crosslinks / restoration of decondensation, in words: SEGS-treated sperm, then hydroxylamine

Q: Which “male reproductive toxicity, in words” value [1] does the source give for O=C(O)c1cc(/N=N/c2ccc(S(=O)(=O)Nc3ccccn3)cc2)ccc1O [Sulfasalazine] here?
A: reduced sperm count and fertilizing capability affected in treated patients

Q: With O[C@H](CS)[C@H](O)CS (racemic) [DTT, Dithiothreitol] as the compound, how does the “effect of pretreatment on decondensation and DNA synthesis events” value [2] read?
A: enhance the decondensation and DNA synthesis "activation" events

Q: Which “effect on pre- and postimplantation loss” value [3] does the source give for O=P1(N(CCCl)CCCl)NCCCO1 (stereo not drawn) [cyclophosphamide] here?
A: increasing pre- and postimplantation loss

Q: What about the “decondensation of sperm from treated rats” value ([3]; six weeks treatment) of the same compound?
A: do not decondense

Q: With C[C@@]1(CO)[C@H](O)CC[C@@]2(C)[C@H]1CC[C@H]1C[C@@H]3C[C@@]12CC[C@]3(O)CO [aphidicolin] as the compound, how does the “% labelled nuclei in extract containing aphidicolin / % labelled nuclei without aphidicolin × 100, expected” value ([4]; aphidicolin 10 μg/ml, 2 hours, autoradiography) read?
A: 20-30%

Q: And the DNA synthesis ([4]; extract containing aphidicolin)?
A: blocked

Q: And the “decondensation of sperm nuclei” value ([4]; extract containing aphidicolin)?
A: normal

Q: What about the “recondensation of sperm nuclei” value ([4]; extract containing aphidicolin) of the same compound?
A: normal

Q: And the “DNA synthesis (previously demonstrated, ref. 17)” value [5]?
A: blocked

Q: What about the “decondensation of sperm nuclei (previously demonstrated, ref. 17)” value [5] of the same compound?
A: normal

Q: And the “recondensation of sperm nuclei (previously demonstrated, ref. 17)” value [5]?
A: normal

Q: And the “inhibition of DNA polymerase alpha” value [6]?
A: known inhibitor of DNA polymerase alpha

Q: What does the source list for O=C(CCC(=O)ON1C(=O)CC(S(=O)(=O)O)C1=O)OCCOC(=O)CCC(=O)ON1C(=O)CC(S(=O)(=O)O)C1=O (stereo not drawn) [SEGS]?
A: inhibition at 3400 µM ([7]; Homo sapiens, Sperm, 3.4 mM SEGS, read-out: sperm in which decondensation was prevented): > 75%; effect on sperm chromatin decondensation, in words (SEGS) [7]: abnormal decondensation responses; also recorded: abnormal chromatin decondensation; also recorded: did not decondense; also recorded: do not decondense; effect on sperm chromatin decondensation, in words (SEGS) ([7]; listed as SULFO-EGS): block decondensation; level to which decondensation is inhibited ([7]; as low as, permeabilized sperm): 20 % of the control

Q: Which “male reproductive toxicity, in words” value [1] does the source give for CS(=O)(=O)OCCCCOS(C)(=O)=O [Busulfan] here?
A: kills reserve and differentiating operamatogonia and reserve stem cell populations in the testis

Q: For NO [hydroxylamine], which “effect on decondensation, in words (hydroxylamine alone)” value [7] is on record?
A: normal decondensation; also recorded: no effect on decondensation

Q: And the “sperm decondensed, hydroxylamine given alone” value ([7]; 5 μM hydroxylamine 5 hours, pH 8.5, 15 minutes in the extract)?
A: 92.0±2.8%

Q: What about the “effect on decondensation, in words (hydroxylamine alone)” value ([7]; listed as Hydroxylamine) of the same compound?
A: no effect

Q: What about the “sperm decondensed after crosslinking with SEGS and then treatment with hydroxylamine” value ([7]; 3.4 mM SEGS 30 min, then 5 μM hydroxylamine 5 hours, 15 minutes in the extract) of the same compound?
A: 76% and 76.0±5.9%

Q: And the “reversal of SEGS crosslinks / restoration of decondensation, in words” value [7]?
A: restored, normal decondensation; also recorded: able to remove the crosslinker; also recorded: able to reverse most of the crosslinks; also recorded: reversed the damage

Q: What about the “reversal of SEGS crosslinks / restoration of decondensation, in words” value ([7]; listed as Hydroxylamine) of the same compound?
A: restore normal decondensation

Q: And the “effect on decondensation, in words (higher hydroxylamine concentrations)” value ([7]; hydroxylamine higher than 5 μM)?
A: adverse effect on decondensation
